Values of other authors, collected in patent US20230226058A1, “METHODS AND COMPOSITIONS FOR TREATING ACUTE KIDNEY INJURY” (CalciMedica, Inc., priority 2020, published 2023).

Tested on: AKI rats

For `Cc1nnsc1C(=O)Nc1ccc(-n2nc(C(F)(F)F)cc2C(F)(F)F)cc1` [YM58483/BPT2], the “infiltration of total CD4+ T-cells, B-cells, and dendritic cells following I/R” value (AKI rats) is listed as “attenuated” and the “Total IL17 expressing cells” value (treated rats relative to vehicle treated rats) is listed as “reduced”.
